Data: patent publication US20240255529A1, “NOVEL ASSAY AND NOVEL METHODS OF TREATING AGING-RELATED CONDITIONS” (The Progeria Research Foundation, priority 2021, published 2024)

What was measured:
children with HGPS = children with HGPS treated with lonafarnib; cited from earlier work
[1] = children with HGPS treated with lonafarnib during a clinical trial; cited from earlier work
patients with HGPS = assay: Life expectancy versus progerin decrease and time on lonafarnib therapy (dynamic model based on cRMST); type: in vivo, human
Description: To quantify increase in life expectancy as it related to decrease in progerin and duration of time on lonafarnib therapy, the methodology by Yang et al. (2021), which proposes a dynamic model that utilizes a series of landmark time points (Dafni, 2011) based on the conditional restricted mean survival time (cRMST), was utilized. This analysis also adjusted for sex and age at baseline.
Next, the relationship between lonafarnib treatment duration and change in life expectancy with extent of change in plasma progerin was assessed (FIG. 7, Table 7). This analysis included samples from patients with a baseline pre-therapy and at least one on-treatment progerin measurement (N=65 patients). […] Three representative wide-ranging examples of on-therapy progerin decreases (1,000, 10,000 and 15,000 pg/mL) spanning 10 years on treatment are graphed in FIG. 7. Patient lifespan increased in all 3 examples.

plasma progerin = assay: Plasma progerin (SMC progerin immunoassay) in HGPS clinical trial patients on therapy; type: in vivo, human
Description: An SMC ultrasensitive immunoassay for the detection of plasma progerin was developed. Overall, the assay employed a sandwich immunoassay format with an anti-lamin A capture antibody coated on magnetic microparticles, and an anti-progerin specific detection antibody conjugated to a fluorescent tag (FIG. 1) run in a 96-well plate. Progerin-bound detection antibody was eluted and read as single molecules using a confocal laser.
The SMC assay for measuring Progerin was as previously described (Todd et al.), except that magnetic microparticles (MP) coated with capture antibodies and detection reagents were specific to the progerin assay (FIG. 1). Briefly, the progerin capture antibody (mouse Mab anti-Lamin A+C, clone: 131C3 Abcam, epitope between amino acid residues 319-566, common to Lamins A, C and progerin) was coated onto MP at 25 μg antibody/mg MP. Samples were exposed to the MP-capture antibody, to specifically bind analyte, followed by one plate wash to remove unbound material. Next, fluorescently labeled progerin-specific detection antibody (Mouse Mab, clone: 13A4, from Millipore, epitope between amino acids 604 and 611 of progerin, which cross the deletion region of lamin A), pre-diluted to 2,000 ng/mL in assay buffer and then filtered through a 0.2 μm filter (MilliporeSigma), was added to wells. Plates were then washed 4 times to remove any unbound detection antibody. All MPs were then transferred from the initial 96-well assay plate to a new plate to avoid eluting any non-specific plate-bound detection antibody. Progerin-bound detection antibody was then eluted by pH shift using a proprietary glycine buffer, transferred to a new plate and detected by SMC using the Erenna Immunoassay System software (SgxLink™). The raw signal data and the interpolated value data obtained from SgxLink were transferred to Excel where precision was then calculated for the replicate wells. The acceptance specification for raw signal and interpolated values was precision and recovery bias≤20%.
A 12-point standard curve of recombinant progerin (Abcam 93918) diluted in EMD standard diluent, a synthetic serum-based solution containing a proprietary mixture of Tris buffer and carrier protein (emdmillipore.com), was run on each plate in triplicate. The standard curve was used to determine progerin concentration in unknown samples. Samples were diluted in standard diluent so that anticipated progerin fell within the dynamic range of the standard curve. All reported progerin and SD are dilution-corrected. All samples were tested in duplicate, unless triplicate is specified.
Human clinical data was obtained from The PRF International Progeria Registry, Diagnostics Program, and Medical and Research Database (available online at progeriaresearch.org). HGPS plasma and serum were obtained from The PRF Cell and Tissue Bank (available online at progeriaresearch.org). Clinical trial samples were donated to the Bank from Boston Children's Hospital (BCH) with informed consent or approval from the BCH Committee on Clinical Investigation. Trial samples were collected in a fasting state, in the morning just prior to treatment dosing as trough samples, except pK samples which were collected at trough and then at specified times post-trough. Non-trial samples were not regulated as to time of day collected. Some nonHGPS healthy human plasma samples were obtained from ProMedDx. HGPS and nonHGPS plasma sample IDs were assigned HGPI and NPI prefixes, respectively.
For analysis, samples were fully thawed at RT for <5 min, lightly mixed, diluted in standard diluent before transferring into filter plate wells (MilliporeSigma MSBVN1210). Patient plasma volumes required for analysis were 200 or 100 μl (nonHGPS 1:1 and 1:2) and 8 μl (HGPS 1:25) to generate duplicates. Filter plates with sample were centrifuged for 10 minutes to pull sample through the filters. Filtrate was then assessed as described. […]

Compound: NC(=O)N1CCC(CC(=O)N2CCC([C@H]3c4ncc(Br)cc4CCc4cc(Cl)cc(Br)c43)CC2)CC1 [lonafarnib]
- increased survival, estimated, on average (children with HGPS): 2.5 years
- Cmax [1]: 2640 ng/mL
- estimated increase in life expectancy (patients with HGPS; 13 patients on therapy for over 10 years): ~6 years
- increase in average lifespan (patients with HGPS; from 14.5 to over 20 years of age, 13 patients on therapy over 10 years): greater than 40%
- average progerin, consecutive Triple Therapy vs on-treatment lonafarnib monotherapy extension visits (plasma progerin; 10 patients, extension 4.1±0.5 years, p=0.99): no significant differences
- average decreases in progerin from baseline (plasma progerin; ProLon1, 5 remaining visits, lonafarnib 150 mg/m^2, N=22-25, all p<0.0001): 50-62%
- progerin at 150 mg/m^2 lonafarnib versus the 115 mg/m^2 dose (plasma progerin; ProLon1, each of the 4 trial visits after the 8-month visit, N=22-25, all p<0.05): significantly decreased
- average progerin decrease from baseline (plasma progerin; ProLon1, month 4, lonafarnib 115 mg/m^2, N=25, p<0.0001): 48%
- average difference of progerin trough (lower) from 2-, 4- and 8-hours post-dose (plasma progerin; ProLon1 pK samples, lonafarnib 115 mg/m^2, all p<0.05): about 3,000 pg/mL
- progerin post-dose (hours 1,2,4,6,8) vs. trough levels (plasma progerin; ProLon1 pK samples, lonafarnib 150 mg/m^2, all p≥0.05): did not demonstrate significant changes
- average progerin decrease from baseline (plasma progerin; ProLon2, lonafarnib monotherapy 150 mg/m^2, dosing period, N=26, p<0.0001): 36.7%
- time to significant decrease of plasma progerin levels (plasma progerin; lonafarnib therapy, HGPS patients): ≤ 4 months
- average decreases in progerin from baseline (plasma progerin; long-term continuous therapy subgroup N=13, all subsequent time points, 150 mg/m^2, up to 9.8±0.5 years, p<0.0001): 56-74%
- average progerin decrease from baseline (plasma progerin; long-term continuous therapy subgroup N=13, month 4, 115 mg/m^2, p<0.0001): 48%
- average decrease of trial patients' plasma progerin (plasma progerin; on therapy, HGPS trial patients): more than 14,000 pg/mL
- average on-therapy plasma progerin decrease from baseline untreated (plasma progerin; overall, all trials, HGPS patients, p<0.0001): 38%
- average on-therapy plasma progerin (plasma progerin; overall, all trials, baseline untreated 32,726±12,659 pg/mL): 20,211±10,190 pg/mL
